pIC50: −log10 of the molar value.
Legend:
K562 cells = assay: K562 Cell Growth Inhibition Assay; type: cell-based; conditions: K562 human myelogenous leukemia cells, 72 h
Description: K562 cells, a human myelogenous leukemia cell line, were seeded into a 24 wells tissue culture plate (Falcon 3047) (10000/well) in the presence of increasing concentrations of the compounds. After 72 h, cells were harvested and were counted using a cell counter (Coulter Counter--ZM). The percent of inhibition was evaluated in respect to the untreated control cells.

[1] = target: p45 v-abl tyrosine kinase; assay: p45 v-abl Kinase Assay ((Val^5)-Angiotensin II phosphorylation); type: biochemical, Abelson murine leukemia virus; conditions: (Val^5)-Angiotensin II 2 mM, ATP 50 μM, pH 8.0, 30° C., read-out: Inhibition of p45 v-abl kinase IC50
Description: The enzyme used in our test was the p45 v-abl tyrosine kinase which represents the catalytic domain of the Abelson tyrosine kinase (isolated from the Abelson murine leukemia virus). The p45 v-abl kinase was produced and isolated as described by Wang et al. in J. Biol. Chem. 260, 64 (1985) and by Ferguson et al. in J. Biol. Chem. 260, 3652 (1985) and in Biochem. J. 257, 321 (1989).
(Val^5)-Angiotensin II phosphorylation was performed by incubation with 40 ng of purified abl-kinase and (γ^32 P)-ATP, in 50 μl of buffer containing Tris-HCl 25 mM, pH 8.0, MgCl2 10 mM and dithiothreitol 0.1 mM (kinase buffer). The reaction mixture was incubated for the indicated time at 30° C. and the reaction stopped by adding 50 μl of 5% trichloroacetic acid. After a brief incubation on ice, tubes were centrifuged. The supernatants were spotted on phosphocellulose paper squares (Whatman P-81) and washed extensively in acetic acid. The radioactivity bound to dried phosphocellulose squares was measured in a liquid scintillation counter. IC50 values were calculated from triplicate determinations of each experimental point. Each inhibitor was tested at concentrations ranging from […] in the presence of fixed concentrations of peptide (2 mM) and ATP (50 μM).

## N#CC(=Cc1ccc(O)c2ncccc12)C(=O)Nc1ccccc1 [N-phenyl β-(8-hydroxy-5-quinolyl)-α-cyanoacrylamide]
K562 cells
  pIC50: 6.18
[1]
  pIC50: 5.47

— patent publication US5652250A, “N-substituted β-aryl- and β-heteroaryl-α-cyanoacrylamide derivatives and process for their preparation” (Pharmacia S.p.A., priority 1994, dated 1997)
